Measured values published in PMC12305494, “Discovery of PXR Antagonist MI891 and PXR Degrader MI1013 and Their Roles in Hepatic Gene Regulation” (Journal of Medicinal Chemistry, 2025).

Legend:
PPARγ = target: T1, PPARγ (Homo sapiens, UniProt P37231); assay: PPARγ agonist reporter assay; type: cell-based; settings: 10 µM MI891
T1 construct: expressed in transfected cells
Experimental: For the farnesoid X receptor (FXR) luciferase gene reporter assay, the full-length expression vector was paired with pFXRE-luc luciferase construct. The p1A1-luc construct was used in the aryl hydrocarbon receptor (AhR) assays with pRL-TK for normalization. Gal4-LXR-α/β, and Gal4-PPAR-γ constructs were used with the pGAL4 UAS-luc construct. For the VDR assay, expression vector pSG5-hVDR together with pVDRE-luc constructs was used. Firefly and Renilla luciferase activities were analyzed using a Dual reporter assay (Promega). For the nuclear receptor assays, prototype ligands were used at the following concentrations: Calcitriol for VDR (100 nM), GW3965 for LXRα and LXRβ (10 μM), 6-OCA for FXR (1 μM), fenofibrate for PPARα (10 μM), estradiol for ERα and β (10 μM), rosiglitazone for PPARγ (10 μM), 3-MC for AhR (5 μM), and TCPOBOP for mCAR (10 μM). Detailed descriptions and protocols are detailed in our recent publication. , […]
hydrophobic interactions. (F) Superimposed diagram of PXR bound with agonist (SJPYT-328) and antagonists (MI891 and SJPYT-331) to differentiate the agonist and antagonist interactions with helix 12 (H12). The interaction of the agonist with PXR residue (L428) is circled. (G) Extended nuclear receptor selectivity profile. […]

ASK1(h) = ASK1(h) (Homo sapiens, UniProt Q99683); assay: Off-target kinase panel; type: biochemical; settings: MI891 @ 1 µM
Experimental: (§1) To evaluate the selectivity of MI891, an off-target profiling study was performed using a panel of 58 kinases.

CDK2/cyclinA(h) = CDK2/cyclinA(h) (Homo sapiens, UniProt P24941); assay: Off-target kinase panel; type: biochemical; settings: MI891 @ 1 µM
Experimental: as §1

CDK6/cyclinD3(h) = CDK6/cyclinD3(h) (Homo sapiens, UniProt Q00534); assay: Off-target kinase panel; type: biochemical; settings: MI891 @ 1 µM
Experimental: as §1

CDK7/cyclinH/MAT1(h) = CDK7/cyclinH/MAT1(h) (Homo sapiens, UniProt P50613); assay: Off-target kinase panel; type: biochemical; settings: MI891 @ 1 µM
Experimental: as §1

CDK9/cyclin T1(h) = CDK9/cyclin T1(h) (Homo sapiens, UniProt P50750); assay: Off-target kinase panel; type: biochemical; settings: MI891 @ 1 µM
Experimental: as §1

CK1γ1(h) = CK1γ1(h) (Homo sapiens, UniProt Q9HCP0); assay: Off-target kinase panel; type: biochemical; settings: MI891 @ 1 µM
Experimental: as §1

CaMKI(h) = CaMKI(h) (Homo sapiens, UniProt Q14012); assay: Off-target kinase panel; type: biochemical; settings: MI891 @ 1 µM
Experimental: as §1

EGFR(h) = EGFR(h) (Homo sapiens, UniProt P00533); assay: Off-target kinase panel; type: biochemical; settings: MI891 @ 1 µM
Experimental: as §1

EphA5(h) = EphA5(h) (Homo sapiens, UniProt P54756); assay: Off-target kinase panel; type: biochemical; settings: MI891 @ 1 µM
Experimental: as §1

Fyn(h) = Fyn(h) (Homo sapiens, UniProt P06241); assay: Off-target kinase panel; type: biochemical; settings: MI891 @ 1 µM
Experimental: as §1

IKKα(h) = IKKα(h) (Homo sapiens, UniProt O15111); assay: Off-target kinase panel; type: biochemical; settings: MI891 @ 1 µM
Experimental: as §1

JAK2(h) = target: T2, JAK2(h) (Homo sapiens, UniProt O60674); assay: Off-target kinase panel; type: biochemical; settings: MI891 @ 1 µM
T2 construct: purchased Eurofins (Millipore) KinaseProfiler, inferred from the naming style
Experimental: as §1

Lyn(h) = target: T3, Lyn(h) (Homo sapiens, UniProt P07948); assay: Off-target kinase panel; type: biochemical; settings: MI891 @ 1 µM
T3 construct: purchased Eurofins (Millipore) KinaseProfiler, inferred from the naming style
Experimental: as §1

MAPKAP-K2(h) = target: T4, MAPKAP-K2(h) (Homo sapiens, UniProt P49137); assay: Off-target kinase panel; type: biochemical; settings: MI891 @ 1 µM
T4 construct: purchased Eurofins (Millipore) KinaseProfiler, inferred from the naming style
Experimental: as §1

MEK1(h) = target: T5, MEK1(h) (Homo sapiens, UniProt Q02750); assay: Off-target kinase panel; type: biochemical; settings: MI891 @ 1 µM
T5 construct: purchased Eurofins (Millipore) KinaseProfiler, inferred from the naming style
Experimental: as §1

MST1(h) = target: T6, MST1(h) (Homo sapiens, UniProt Q13043); assay: Off-target kinase panel; type: biochemical; settings: MI891 @ 1 µM
T6 construct: purchased Eurofins (Millipore) KinaseProfiler, inferred from the naming style
Experimental: as §1

Mnk2(h) = target: T7, Mnk2(h) (Homo sapiens, UniProt Q9HBH9); assay: Off-target kinase panel; type: biochemical; settings: MI891 @ 1 µM
T7 construct: purchased Eurofins (Millipore) KinaseProfiler, inferred from the naming style
Experimental: as §1

NEK2(h) = target: T8, NEK2(h) (Homo sapiens, UniProt P51955); assay: Off-target kinase panel; type: biochemical; settings: MI891 @ 1 µM
T8 construct: purchased Eurofins (Millipore) KinaseProfiler, inferred from the naming style
Experimental: as §1

PAK2(h) = target: T9, PAK2(h) (Homo sapiens, UniProt Q13177); assay: Off-target kinase panel; type: biochemical; settings: MI891 @ 1 µM
T9 construct: purchased Eurofins (Millipore) KinaseProfiler, inferred from the naming style
Experimental: as §1

PDGFRβ(h) = target: T10, PDGFRβ(h) (Homo sapiens, UniProt P09619); assay: Off-target kinase panel; type: biochemical; settings: MI891 @ 1 µM
T10 construct: purchased Eurofins (Millipore) KinaseProfiler, inferred from the naming style
Experimental: as §1

[1] = target: T11, PI3 Kinase (p110b/p85a)(h) (Homo sapiens, UniProt P42338); assay: Off-target kinase panel; type: biochemical; settings: MI891 @ 1 µM
T11 construct: purchased Eurofins (Millipore) KinaseProfiler, inferred from the naming style
Experimental: as §1

PI3 Kinase (p120g)(h) = target: T12, PI3 Kinase (p120g)(h) (Homo sapiens, UniProt P48736); assay: Off-target kinase panel; type: biochemical; settings: MI891 @ 1 µM
T12 construct: purchased Eurofins (Millipore) KinaseProfiler, inferred from the naming style
Experimental: as §1

PKBα(h) = target: T13, PKBα(h) (Homo sapiens, UniProt P31749); assay: Off-target kinase panel; type: biochemical; settings: MI891 @ 1 µM
T13 construct: purchased Eurofins (Millipore) KinaseProfiler, inferred from the naming style
Experimental: as §1

PKCθ(h) = target: T14, PKCθ(h) (Homo sapiens, UniProt Q04759); assay: Off-target kinase panel; type: biochemical; settings: MI891 @ 1 µM
T14 construct: purchased Eurofins (Millipore) KinaseProfiler, inferred from the naming style
Experimental: as §1

PRAK(h) = target: T15, PRAK(h) (Homo sapiens, UniProt Q8IW41); assay: Off-target kinase panel; type: biochemical; settings: MI891 @ 1 µM
T15 construct: purchased Eurofins (Millipore) KinaseProfiler, inferred from the naming style
Experimental: as §1

Plk3(h) = target: T16, Plk3(h) (Homo sapiens, UniProt Q9H4B4); assay: Off-target kinase panel; type: biochemical; settings: MI891 @ 1 µM
T16 construct: purchased Eurofins (Millipore) KinaseProfiler, inferred from the naming style
Experimental: as §1

SAPK2a(h) = target: T17, SAPK2a(h) (Homo sapiens, UniProt Q16539); assay: Off-target kinase panel; type: biochemical; settings: MI891 @ 1 µM
T17 construct: purchased Eurofins (Millipore) KinaseProfiler, inferred from the naming style
Experimental: as §1

mTOR(h) = target: T18, mTOR(h) (Homo sapiens, UniProt P42345); assay: Off-target kinase panel; type: biochemical; settings: MI891 @ 1 µM
T18 construct: purchased Eurofins (Millipore) KinaseProfiler, inferred from the naming style
Experimental: as §1

Sequence of Fyn(h) (P06241 whole entry): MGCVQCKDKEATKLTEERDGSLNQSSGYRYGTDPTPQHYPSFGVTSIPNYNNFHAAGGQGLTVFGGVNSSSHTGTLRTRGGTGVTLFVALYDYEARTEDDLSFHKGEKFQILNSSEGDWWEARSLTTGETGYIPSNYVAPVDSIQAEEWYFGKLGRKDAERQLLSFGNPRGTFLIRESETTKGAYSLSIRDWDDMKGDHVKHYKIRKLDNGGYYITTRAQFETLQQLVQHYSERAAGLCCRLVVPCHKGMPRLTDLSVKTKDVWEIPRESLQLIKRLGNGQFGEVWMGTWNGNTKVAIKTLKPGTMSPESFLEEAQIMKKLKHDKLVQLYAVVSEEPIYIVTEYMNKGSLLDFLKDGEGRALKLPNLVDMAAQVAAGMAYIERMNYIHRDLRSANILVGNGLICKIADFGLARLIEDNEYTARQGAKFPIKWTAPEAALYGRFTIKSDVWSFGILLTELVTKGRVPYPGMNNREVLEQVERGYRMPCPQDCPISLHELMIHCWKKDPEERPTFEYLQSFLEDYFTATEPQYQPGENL
Sequence of CK1γ1(h) (Q9HCP0 whole entry): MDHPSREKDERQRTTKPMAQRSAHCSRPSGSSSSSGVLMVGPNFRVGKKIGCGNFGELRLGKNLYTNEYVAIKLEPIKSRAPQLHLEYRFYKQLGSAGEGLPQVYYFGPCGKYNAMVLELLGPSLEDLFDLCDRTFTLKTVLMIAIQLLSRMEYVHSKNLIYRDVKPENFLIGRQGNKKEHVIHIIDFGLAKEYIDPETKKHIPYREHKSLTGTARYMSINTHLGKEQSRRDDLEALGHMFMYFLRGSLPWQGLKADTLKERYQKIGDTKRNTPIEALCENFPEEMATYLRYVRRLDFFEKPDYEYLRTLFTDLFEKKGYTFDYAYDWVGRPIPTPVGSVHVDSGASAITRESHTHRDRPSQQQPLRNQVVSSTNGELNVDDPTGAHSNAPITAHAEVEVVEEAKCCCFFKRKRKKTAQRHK
Sequence of EGFR(h) (P00533 25-1210): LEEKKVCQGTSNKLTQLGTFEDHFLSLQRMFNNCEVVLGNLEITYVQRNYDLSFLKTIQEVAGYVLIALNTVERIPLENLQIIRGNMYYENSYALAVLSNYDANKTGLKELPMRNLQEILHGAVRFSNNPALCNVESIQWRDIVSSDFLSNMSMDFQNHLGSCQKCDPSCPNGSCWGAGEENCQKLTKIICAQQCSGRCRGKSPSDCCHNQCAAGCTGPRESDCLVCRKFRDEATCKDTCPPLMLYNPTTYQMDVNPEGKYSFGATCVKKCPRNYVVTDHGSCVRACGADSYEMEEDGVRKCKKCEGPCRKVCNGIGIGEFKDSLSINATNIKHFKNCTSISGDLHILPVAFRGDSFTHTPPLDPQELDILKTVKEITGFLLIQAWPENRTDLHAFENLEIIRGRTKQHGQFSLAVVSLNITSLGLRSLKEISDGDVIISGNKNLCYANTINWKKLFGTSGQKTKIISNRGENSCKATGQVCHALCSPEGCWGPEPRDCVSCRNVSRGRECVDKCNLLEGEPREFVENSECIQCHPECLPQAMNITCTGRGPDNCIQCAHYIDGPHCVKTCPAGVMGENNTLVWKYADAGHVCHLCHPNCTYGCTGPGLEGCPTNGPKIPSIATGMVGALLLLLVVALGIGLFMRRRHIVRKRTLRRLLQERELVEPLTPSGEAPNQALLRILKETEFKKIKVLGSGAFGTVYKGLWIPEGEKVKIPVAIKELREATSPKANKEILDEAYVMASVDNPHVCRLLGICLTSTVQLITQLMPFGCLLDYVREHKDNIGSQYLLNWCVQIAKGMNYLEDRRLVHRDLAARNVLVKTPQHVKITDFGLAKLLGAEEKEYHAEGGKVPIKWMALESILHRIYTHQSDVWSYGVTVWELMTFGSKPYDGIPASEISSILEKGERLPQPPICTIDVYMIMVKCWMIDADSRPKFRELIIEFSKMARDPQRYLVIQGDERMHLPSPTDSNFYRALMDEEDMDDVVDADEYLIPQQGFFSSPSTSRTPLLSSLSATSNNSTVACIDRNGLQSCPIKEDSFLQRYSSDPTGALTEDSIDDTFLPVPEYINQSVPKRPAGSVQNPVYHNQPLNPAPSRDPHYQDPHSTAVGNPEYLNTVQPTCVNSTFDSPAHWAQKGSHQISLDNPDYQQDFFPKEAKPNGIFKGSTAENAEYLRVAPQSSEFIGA
T1 sequence (P37231 238-505 limits assumed, species assumed): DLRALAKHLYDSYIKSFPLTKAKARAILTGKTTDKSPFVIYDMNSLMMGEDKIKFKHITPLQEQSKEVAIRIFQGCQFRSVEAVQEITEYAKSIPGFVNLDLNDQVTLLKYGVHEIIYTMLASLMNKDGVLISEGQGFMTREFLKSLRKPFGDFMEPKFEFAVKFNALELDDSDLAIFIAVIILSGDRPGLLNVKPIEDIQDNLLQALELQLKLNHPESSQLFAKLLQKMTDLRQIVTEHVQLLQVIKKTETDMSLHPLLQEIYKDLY
Sequence of EphA5(h) (P54756 25-1037): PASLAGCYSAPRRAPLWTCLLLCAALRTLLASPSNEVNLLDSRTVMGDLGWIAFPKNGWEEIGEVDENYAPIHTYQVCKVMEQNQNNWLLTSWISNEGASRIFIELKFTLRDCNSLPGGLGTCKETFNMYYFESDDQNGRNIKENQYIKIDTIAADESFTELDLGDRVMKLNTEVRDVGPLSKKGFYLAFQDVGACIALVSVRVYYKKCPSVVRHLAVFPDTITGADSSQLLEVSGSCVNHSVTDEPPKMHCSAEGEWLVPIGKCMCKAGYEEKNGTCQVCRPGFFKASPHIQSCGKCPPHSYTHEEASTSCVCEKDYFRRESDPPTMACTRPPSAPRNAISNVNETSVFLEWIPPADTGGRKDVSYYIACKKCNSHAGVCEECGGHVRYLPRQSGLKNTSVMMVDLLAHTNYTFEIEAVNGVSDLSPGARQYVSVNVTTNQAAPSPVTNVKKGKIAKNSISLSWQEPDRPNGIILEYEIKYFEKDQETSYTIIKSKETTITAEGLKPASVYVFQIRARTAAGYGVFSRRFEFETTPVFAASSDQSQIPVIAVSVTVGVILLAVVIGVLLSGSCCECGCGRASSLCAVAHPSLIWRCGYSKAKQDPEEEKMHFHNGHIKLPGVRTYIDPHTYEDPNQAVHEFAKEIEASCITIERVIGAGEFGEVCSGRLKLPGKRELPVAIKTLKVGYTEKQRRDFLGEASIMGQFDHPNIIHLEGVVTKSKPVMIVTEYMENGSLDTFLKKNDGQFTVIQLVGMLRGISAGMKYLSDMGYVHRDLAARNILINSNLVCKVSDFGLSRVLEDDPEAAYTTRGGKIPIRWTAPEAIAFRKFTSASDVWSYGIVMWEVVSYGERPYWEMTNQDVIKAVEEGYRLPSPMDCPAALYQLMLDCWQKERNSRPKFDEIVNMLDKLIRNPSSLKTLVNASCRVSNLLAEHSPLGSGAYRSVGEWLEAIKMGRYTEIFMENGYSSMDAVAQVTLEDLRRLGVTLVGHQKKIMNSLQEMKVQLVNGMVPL
T7 sequence (Q9HBH9 whole entry): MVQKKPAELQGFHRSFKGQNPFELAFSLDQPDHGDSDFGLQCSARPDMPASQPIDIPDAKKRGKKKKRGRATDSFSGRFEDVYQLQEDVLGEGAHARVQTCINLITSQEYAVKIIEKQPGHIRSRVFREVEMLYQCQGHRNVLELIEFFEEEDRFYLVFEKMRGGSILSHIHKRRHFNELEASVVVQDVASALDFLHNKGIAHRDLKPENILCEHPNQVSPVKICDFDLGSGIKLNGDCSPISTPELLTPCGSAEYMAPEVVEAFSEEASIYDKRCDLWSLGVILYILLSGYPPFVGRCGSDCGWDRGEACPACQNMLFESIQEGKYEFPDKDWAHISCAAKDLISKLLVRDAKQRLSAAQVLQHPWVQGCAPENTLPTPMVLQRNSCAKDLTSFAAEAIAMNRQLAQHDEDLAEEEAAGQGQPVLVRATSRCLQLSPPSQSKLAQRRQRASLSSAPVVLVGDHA
T12 sequence (P48736 whole entry): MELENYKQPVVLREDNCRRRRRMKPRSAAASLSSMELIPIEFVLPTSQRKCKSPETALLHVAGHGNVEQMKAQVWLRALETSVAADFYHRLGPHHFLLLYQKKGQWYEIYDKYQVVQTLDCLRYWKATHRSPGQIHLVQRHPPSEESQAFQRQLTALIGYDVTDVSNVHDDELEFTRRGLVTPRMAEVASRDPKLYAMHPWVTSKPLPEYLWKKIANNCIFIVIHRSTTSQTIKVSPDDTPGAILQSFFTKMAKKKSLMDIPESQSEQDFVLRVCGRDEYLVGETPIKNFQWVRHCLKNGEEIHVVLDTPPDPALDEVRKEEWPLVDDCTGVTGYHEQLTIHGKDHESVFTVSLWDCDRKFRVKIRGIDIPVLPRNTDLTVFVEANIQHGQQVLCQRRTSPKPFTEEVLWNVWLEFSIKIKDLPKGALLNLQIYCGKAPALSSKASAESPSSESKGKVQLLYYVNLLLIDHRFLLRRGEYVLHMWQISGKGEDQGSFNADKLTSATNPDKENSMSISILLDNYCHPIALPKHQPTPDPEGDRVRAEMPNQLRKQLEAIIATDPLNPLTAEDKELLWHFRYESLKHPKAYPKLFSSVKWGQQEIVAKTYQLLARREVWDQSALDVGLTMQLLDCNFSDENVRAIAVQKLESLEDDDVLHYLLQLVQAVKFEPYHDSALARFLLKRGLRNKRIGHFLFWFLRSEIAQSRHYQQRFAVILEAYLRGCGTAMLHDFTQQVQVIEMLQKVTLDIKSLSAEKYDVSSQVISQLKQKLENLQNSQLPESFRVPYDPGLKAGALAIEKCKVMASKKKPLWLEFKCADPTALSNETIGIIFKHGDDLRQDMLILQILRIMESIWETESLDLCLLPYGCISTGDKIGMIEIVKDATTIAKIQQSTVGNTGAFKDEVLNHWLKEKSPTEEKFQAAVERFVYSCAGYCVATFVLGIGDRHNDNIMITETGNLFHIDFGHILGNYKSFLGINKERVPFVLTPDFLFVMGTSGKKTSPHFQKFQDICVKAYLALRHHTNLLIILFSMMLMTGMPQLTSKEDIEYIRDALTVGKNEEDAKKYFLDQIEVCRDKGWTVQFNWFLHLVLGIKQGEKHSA

agonistic effect on PPARγ (PPARγ): no agonistic effects | activity at 1 µM (ASK1(h)): 91% | activity at 1 µM (CDK2/cyclinA(h)): 106% | activity at 1 µM (CDK6/cyclinD3(h)): 92% | activity at 1 µM (CDK7/cyclinH/MAT1(h)): 94% | activity at 1 µM (CDK9/cyclin T1(h)): 124% | activity at 1 µM (CK1γ1(h)): 100% | activity at 1 µM (CaMKI(h)): 95% | activity at 1 µM (EGFR(h)): 103% | activity at 1 µM (EphA5(h)): 106% | activity at 1 µM (Fyn(h)): 81% | activity at 1 µM (IKKα(h)): 104% | activity at 1 µM (JAK2(h)): 101% | activity at 1 µM (Lyn(h)): 88% | activity at 1 µM (MAPKAP-K2(h)): 101% | activity at 1 µM (MEK1(h)): 94% | activity at 1 µM (MST1(h)): 94% | activity at 1 µM (Mnk2(h)): 86% | activity at 1 µM (NEK2(h)): 103% | activity at 1 µM (PAK2(h)): 84% | activity at 1 µM (PDGFRβ(h)): 86% | activity at 1 µM [1]: 100% | activity at 1 µM (PI3 Kinase (p120g)(h)): 102% | activity at 1 µM (PKBα(h)): 100% | activity at 1 µM (PKCθ(h)): 90% | activity at 1 µM (PRAK(h)): 81% | activity at 1 µM (Plk3(h)): 113% | activity at 1 µM (SAPK2a(h)): 99% | activity at 1 µM (mTOR(h)): 96%
Structure (SMILES): NC(=O)c1cc(Cn2cc(-c3c(-c4ccc(Cl)cc4)nc4c(F)cc(F)cn34)nn2)ccc1Cl [Compound 11, 2-Chloro-5-((4-(2-(4-chlorophenyl)-6,8-difluoroimidazo[1,2-a]pyridin-3-yl)-1H-1,2,3-triazol-1-yl)methyl)-benzamide]
